Legend:
Type in all cases: in vivo
[1] = tested on: velvetleaf (Abutilon theophrasti); assay: Test G Pre-Emergence Protocol; conditions: Abutilon theophrasti, pre-emergence, 312 h, evaluated after 13 days; for pest or weed control at 15.625 g/ha: 15.625 g ai/ha; for pest or weed control at 15.625 g/ha / pest or weed control at 250 g/ha: read-out: Velvetleaf damage rating (100=total damage to plant; 0=no damage to plant); for pest or weed control at 62.5 g/ha: 62.5 g ai/ha, 100=total damage to plant, 0=no damage to plant, read-out: Velvetleaf damage rating; for pest or weed control at 250 g/ha: 250 g ai/ha
Method in brief: (§1)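 Seeds were sown in standard soil and kept one day in a glasshouse (24/16° C day/night, 14 h light, 65% humidity), then sprayed with compound in acetone/water (50:50) containing 0.5% Tween 20 at 15.625, 62.5 or 250 g/ha. Damage was scored after 13 days (0 = none, 100 = total).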

[2] = tested on: ivy-leaved morning glory (Ipomoea hederacea); assay: Test G Pre-Emergence Protocol; conditions: Ipomoea, pre-emergence, 312 h, evaluated after 13 days; for pest or weed control at 15.625 g/ha: 15.625 g ai/ha; for pest or weed control at 15.625 g/ha / pest or weed control at 250 g/ha: read-out: Morningglory, Ivy-leaved damage rating (100=total damage to plant; 0=no damage to plant); for pest or weed control at 62.5 g/ha: 62.5 g ai/ha, 100=total damage to plant, 0=no damage to plant, read-out: Morningglory, Ivy-leaved damage rating; for pest or weed control at 250 g/ha: 250 g ai/ha
Method in brief: as §1

[3] = tested on: giant foxtail (Setaria faberi); assay: Test G Pre-Emergence Protocol; conditions: Setaria faberi, pre-emergence, 312 h, evaluated after 13 days; for pest or weed control at 15.625 g/ha: 15.625 g ai/ha; for pest or weed control at 15.625 g/ha / pest or weed control at 250 g/ha: read-out: Foxtail, Giant damage rating (100=total damage to plant; 0=no damage to plant); for pest or weed control at 62.5 g/ha: 62.5 g ai/ha, 100=total damage to plant, 0=no damage to plant, read-out: Foxtail, Giant damage rating; for pest or weed control at 250 g/ha: 250 g ai/ha
Method in brief: as §1

[4] = tested on: barnyardgrass (Echinochloa crus-galli); assay: Test G Pre-Emergence Protocol; conditions: Echinochloa crus-galli, pre-emergence, 312 h, evaluated after 13 days; for pest or weed control at 15.625 g/ha: 15.625 g ai/ha; for pest or weed control at 15.625 g/ha / pest or weed control at 250 g/ha: read-out: Barnyardgrass damage rating (100=total damage to plant; 0=no damage to plant); for pest or weed control at 62.5 g/ha: 62.5 g ai/ha, 100=total damage to plant, 0=no damage to plant, read-out: Barnyardgrass damage rating; for pest or weed control at 250 g/ha: 250 g ai/ha
Method in brief: as §1

corn (Zea mays) [5] = assay: Test G Pre-Emergence Protocol; conditions: Zea mays, pre-emergence, 312 h, evaluated after 13 days; for plant injury at 15.625 g/ha: 15.625 g ai/ha; for plant injury at 15.625 g/ha / plant injury at 250 g/ha: read-out: Corn damage rating (100=total damage to plant; 0=no damage to plant); for plant injury at 62.5 g/ha: 62.5 g ai/ha, 100=total damage to plant, 0=no damage to plant, read-out: Corn damage rating; for plant injury at 250 g/ha: 250 g ai/ha
Method in brief: as §1

[6] = tested on: redroot pigweed (Amaranthus retroflexus); assay: Test G Pre-Emergence Protocol; conditions: Amaranthus retroflexus, pre-emergence, 312 h, evaluated after 13 days; for pest or weed control at 15.625 g/ha: 15.625 g ai/ha; for pest or weed control at 15.625 g/ha / pest or weed control at 250 g/ha: read-out: Pigweed, Redroot damage rating (100=total damage to plant; 0=no damage to plant); for pest or weed control at 62.5 g/ha: 62.5 g ai/ha, 100=total damage to plant, 0=no damage to plant, read-out: Pigweed, Redroot damage rating; for pest or weed control at 250 g/ha: 250 g ai/ha
Method in brief: as §1

[7] = tested on: velvetleaf (Abutilon theophrasti); assay: Test G Post-Emergence Protocol; conditions: Abutilon theophrasti, post-emergence, 312 h, read-out: Velvetleaf damage rating; for pest or weed control at 15.625 g/ha: 15.625 g ai/ha, evaluated after 13 days (100=total damage to plant; 0=no damage to plant); for pest or weed control at 62.5 g/ha: 62.5 g ai/ha; for pest or weed control at 62.5 g/ha / pest or weed control at 250 g/ha: evaluated after 13 days, 100=total damage to plant, 0=no damage to plant; for pest or weed control at 250 g/ha: 250 g ai/ha
Method in brief: (§2)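 Sow in soil; grow 8 d (24/16 °C, 14 h light, 65% humidity); spray 15.625/62.5/250 g/ha in acetone:water 50:50 + 0.5% Tween 20; grow on, water twice daily; score damage 0–100 at 13 d.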

[8] = tested on: ivy-leaved morning glory (Ipomoea hederacea); assay: Test G Post-Emergence Protocol; conditions: Ipomoea, post-emergence, 312 h, read-out: Morningglory, Ivy-leaved damage rating; for pest or weed control at 15.625 g/ha: 15.625 g ai/ha, evaluated after 13 days (100=total damage to plant; 0=no damage to plant); for pest or weed control at 62.5 g/ha: 62.5 g ai/ha; for pest or weed control at 62.5 g/ha / pest or weed control at 250 g/ha: evaluated after 13 days, 100=total damage to plant, 0=no damage to plant; for pest or weed control at 250 g/ha: 250 g ai/ha
Method in brief: as §2

[9] = tested on: giant foxtail (Setaria faberi); assay: Test G Post-Emergence Protocol; conditions: Setaria faberi, post-emergence, 312 h, read-out: Foxtail, Giant damage rating; for pest or weed control at 15.625 g/ha: 15.625 g ai/ha, evaluated after 13 days (100=total damage to plant; 0=no damage to plant); for pest or weed control at 62.5 g/ha: 62.5 g ai/ha; for pest or weed control at 62.5 g/ha / pest or weed control at 250 g/ha: evaluated after 13 days, 100=total damage to plant, 0=no damage to plant; for pest or weed control at 250 g/ha: 250 g ai/ha
Method in brief: as §2

[10] = tested on: barnyardgrass (Echinochloa crus-galli); assay: Test G Post-Emergence Protocol; conditions: Echinochloa crus-galli, post-emergence, 312 h, read-out: Barnyardgrass damage rating; for pest or weed control at 15.625 g/ha: 15.625 g ai/ha, evaluated after 13 days (100=total damage to plant; 0=no damage to plant); for pest or weed control at 62.5 g/ha: 62.5 g ai/ha; for pest or weed control at 62.5 g/ha / pest or weed control at 250 g/ha: evaluated after 13 days, 100=total damage to plant, 0=no damage to plant; for pest or weed control at 250 g/ha: 250 g ai/ha
Method in brief: as §2

corn (Zea mays) [11] = assay: Test G Post-Emergence Protocol; conditions: Zea mays, post-emergence, 312 h, read-out: Corn damage rating; for plant injury at 15.625 g/ha: 15.625 g ai/ha, evaluated after 13 days (100=total damage to plant; 0=no damage to plant); for plant injury at 62.5 g/ha: 62.5 g ai/ha; for plant injury at 62.5 g/ha / plant injury at 250 g/ha: evaluated after 13 days, 100=total damage to plant, 0=no damage to plant; for plant injury at 250 g/ha: 250 g ai/ha
Method in brief: as §2

[12] = tested on: redroot pigweed (Amaranthus retroflexus); assay: Test G Post-Emergence Protocol; conditions: Amaranthus retroflexus, post-emergence, 312 h, read-out: Pigweed, Redroot damage rating; for pest or weed control at 15.625 g/ha: 15.625 g ai/ha, evaluated after 13 days (100=total damage to plant; 0=no damage to plant); for pest or weed control at 62.5 g/ha: 62.5 g ai/ha; for pest or weed control at 62.5 g/ha / pest or weed control at 250 g/ha: evaluated after 13 days, 100=total damage to plant, 0=no damage to plant; for pest or weed control at 250 g/ha: 250 g ai/ha
Method in brief: as §2

Row | Compound | pest or weed control at 15.625 g/ha [1] | pest or weed control at 62.5 g/ha [1] | pest or weed control at 250 g/ha [1] | pest or weed control at 15.625 g/ha [2] | pest or weed control at 62.5 g/ha [2] | pest or weed control at 250 g/ha [2] | pest or weed control at 15.625 g/ha [3] | pest or weed control at 62.5 g/ha [3] | pest or weed control at 250 g/ha [3] | pest or weed control at 15.625 g/ha [4] | pest or weed control at 62.5 g/ha [4] | pest or weed control at 250 g/ha [4] | plant injury at 15.625 g/ha (corn (Zea mays) [5]) | plant injury at 62.5 g/ha (corn (Zea mays) [5]) | plant injury at 250 g/ha (corn (Zea mays) [5]) | pest or weed control at 15.625 g/ha [6] | pest or weed control at 62.5 g/ha [6] | pest or weed control at 250 g/ha [6] | pest or weed control at 15.625 g/ha [7] | pest or weed control at 62.5 g/ha [7] | also measured
1 | COCCOc1cc([C@@H]2CN(C)C(=O)[C@H]2C(=O)Nc2cccc(F)c2C)ccc1C (racemic) [Compound 1790] | 0% | 0% | 40% | 0% | 20% | 70% | 70% | 70% | 90% | 40% | 70% | 90% | 20% | 70% | 90% | 0% | 0% | 10% | 0% | 20% | pest or weed control at 250 g/ha [7]: 30%; pest or weed control at 15.625 g/ha [8]: 20%; pest or weed control at 62.5 g/ha [8]: 20%; pest or weed control at 250 g/ha [8]: 40%; pest or weed control at 15.625 g/ha [9]: 70%; pest or weed control at 62.5 g/ha [9]: 80%; pest or weed control at 250 g/ha [9]: 80%; pest or weed control at 15.625 g/ha [10]: 50%; pest or weed control at 62.5 g/ha [10]: 70%; pest or weed control at 250 g/ha [10]: 70%; plant injury at 15.625 g/ha (corn (Zea mays) [11]): 50%; plant injury at 62.5 g/ha (corn (Zea mays) [11]): 70%; plant injury at 250 g/ha (corn (Zea mays) [11]): 80%; pest or weed control at 15.625 g/ha [12]: 0%; pest or weed control at 62.5 g/ha [12]: 0%; pest or weed control at 250 g/ha [12]: 0%
2 | Cc1cc([C@H]2CN(C)C(=O)[C@@H]2C(=O)Nc2ccccc2S(C)(=O)=O)cc(C(F)(F)F)c1 (racemic) [Compound 1795] | 0% | 0% | 10% | 0% | 10% | 60% | 60% | 80% | 90% | 30% | 70% | 80% | 0% | 40% | 80% | 0% | 20% | 30% | 0% | 0% | pest or weed control at 250 g/ha [7]: 20%; pest or weed control at 15.625 g/ha [8]: 10%; pest or weed control at 62.5 g/ha [8]: 20%; pest or weed control at 250 g/ha [8]: 70%; pest or weed control at 15.625 g/ha [9]: 60%; pest or weed control at 62.5 g/ha [9]: 80%; pest or weed control at 250 g/ha [9]: 80%; pest or weed control at 15.625 g/ha [10]: 20%; pest or weed control at 62.5 g/ha [10]: 70%; pest or weed control at 250 g/ha [10]: 70%; plant injury at 15.625 g/ha (corn (Zea mays) [11]): 0%; plant injury at 62.5 g/ha (corn (Zea mays) [11]): 40%; plant injury at 250 g/ha (corn (Zea mays) [11]): 70%; pest or weed control at 15.625 g/ha [12]: 0%; pest or weed control at 62.5 g/ha [12]: 20%; pest or weed control at 250 g/ha [12]: 30%

From patent US12077503B2, “Substituted cyclic amides and their use as herbicides” (FMC CORPORATION, priority 2015, dated 2024)
